Test [1] addresses PKMYT1 (Homo sapiens (Human), UniProt Q99640). Nature of the test: PKMYT1 HTRF Assay. It counts as binding. To be noted: Tracer 178, compound 10 μM to 0.5 nM, read-out: MYT1 HTRF IC50. On the procedure: Compound serial dilution is performed by Echo, and the final concentrations vary from 10 μM to 0.5 nM. This was filled by the addition of 5 μL/well of Enzyme solution to the assay plate containing the compound. The plate was centrifuged at 1000 rpm for 1 minute, and incubate 15 minutes at 25° C. […] Next 5 μL GST-Tb was added into the assay plate, the plate was centrifuged at 1000 rpm for 1 minute, and incubate for 15 minutes at 25° C. The assay plate was read on Envision.

In test [2] the target is WEE1 (Homo sapiens (Human), UniProt P30291). In words: WEE1 ADP-Glo Assay. Format: biochemical. To be noted: compound 10 μM to 0.5 nM. On the procedure:
Compound serial dilution is performed by Echo, and the final concentrations vary from 10 μM to 0.5 nM. This was filled by the addition of 5 μL/well of Enzyme solution to the assay plate containing the compound. The plate was centrifuged at 1000 rpm for 1 minute, and incubate 15 minutes at 25° C. Then 5 μL/well of substrate solution was added to initiate the reaction, and incubate for 60 minutes at 25° C. Next 10 μL kinase detection reagent was added into the assay plate, the plate was centrifuged at 1000 rpm for 1 minute, and incubate for 60 minutes at […]. The assay plate was read on Envision for US LUM as RLU.

pIC50: −log10 of the molar value. A value given as a limit tells only on which side of the number the result lay.

Sequence of PKMYT1 (Q99640 whole entry): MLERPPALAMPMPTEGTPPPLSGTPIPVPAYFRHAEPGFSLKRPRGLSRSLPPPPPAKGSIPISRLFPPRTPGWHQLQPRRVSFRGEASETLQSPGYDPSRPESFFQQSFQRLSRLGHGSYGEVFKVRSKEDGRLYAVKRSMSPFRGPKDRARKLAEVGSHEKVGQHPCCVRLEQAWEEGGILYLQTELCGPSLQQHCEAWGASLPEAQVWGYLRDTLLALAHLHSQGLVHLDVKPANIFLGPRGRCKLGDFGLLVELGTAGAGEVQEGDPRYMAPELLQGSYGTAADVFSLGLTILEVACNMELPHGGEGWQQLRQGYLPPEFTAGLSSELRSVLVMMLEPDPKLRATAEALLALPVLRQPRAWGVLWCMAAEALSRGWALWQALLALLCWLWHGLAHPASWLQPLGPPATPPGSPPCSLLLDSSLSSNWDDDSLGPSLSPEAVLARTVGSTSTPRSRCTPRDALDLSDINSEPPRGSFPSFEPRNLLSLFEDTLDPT
Sequence of WEE1 (P30291 whole entry): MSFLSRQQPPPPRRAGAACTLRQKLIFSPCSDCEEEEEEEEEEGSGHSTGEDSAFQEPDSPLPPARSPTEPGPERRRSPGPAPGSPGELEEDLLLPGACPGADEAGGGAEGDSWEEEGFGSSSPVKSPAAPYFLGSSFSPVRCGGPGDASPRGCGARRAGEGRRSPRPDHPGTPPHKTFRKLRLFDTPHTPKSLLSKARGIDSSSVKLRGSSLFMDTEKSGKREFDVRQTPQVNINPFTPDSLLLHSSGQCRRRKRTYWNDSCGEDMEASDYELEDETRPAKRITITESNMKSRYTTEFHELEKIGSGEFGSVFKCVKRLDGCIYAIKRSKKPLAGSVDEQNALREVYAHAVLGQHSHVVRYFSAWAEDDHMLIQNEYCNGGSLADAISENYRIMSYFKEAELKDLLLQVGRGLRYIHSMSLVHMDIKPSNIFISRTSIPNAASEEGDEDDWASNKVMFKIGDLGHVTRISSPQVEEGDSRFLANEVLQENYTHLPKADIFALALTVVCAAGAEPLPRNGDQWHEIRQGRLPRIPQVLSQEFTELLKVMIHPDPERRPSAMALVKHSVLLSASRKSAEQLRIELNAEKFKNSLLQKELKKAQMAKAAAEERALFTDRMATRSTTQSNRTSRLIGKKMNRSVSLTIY

Consider `Cc1ccc(O)c(C)c1-n1c(N)c(C(=O)N2CCc3ncsc3C2)c2nc(C)c(C)nc21` [Example 5, (6-amino-5-(3-hydroxy-2,6-dimethylphenyl)-2,3-dimethyl-5H-pyrrolo[2,3-b]pyrazin-7-yl)(6,7-dihydrothiazolo[5,4-c]pyridin-5(4H)-yl)methanone], for which the pIC50 in test [1] is 7.30 to 8.00; in test [2] it was under 5.00.
Taken in the same sequence, the figures for `Cc1ccc(O)c(C)c1-n1c(N)c(C(=O)N2CCc3nn(C)cc3C2)c2nc(C)c(C)nc21` [Example 6, (6-amino-5-(3-hydroxy-2,6-dimethylphenyl)-2,3-dimethyl-5H-pyrrolo[2,3-b]pyrazin-7-yl)(2-methyl-2,4,6,7-tetrahydro-5H-pyrazolo[4,3-c]pyridin-5-yl)methanone] were 7.30 to 8.00 and under 5.00.
Take `Cc1ccc(O)c(C)c1-n1c(N)c(C(=O)N2CCc3ncccc3C2)c2nc(C)c(C)nc21` [Example 7, (6-amino-5-(3-hydroxy-2,6-dimethylphenyl)-2,3-dimethyl-5H-pyrrolo[2,3-b]pyrazin-7-yl)(7,8-dihydro-1,6-naphthyridin-6(5H)-yl)methanone]: the results for the negative-log IC50 (pIC50) in test [1] and in test [2] were over 8.00 and under 5.00, respectively.
Taken in the same sequence, the figures for `Cc1ccc(O)c(C)c1-n1c(N)c(C(=O)N2CCc3ncsc3C2)c2cc(Cl)cnc21` [Example 9, (2-amino-5-chloro-1-(3-hydroxy-2,6-dimethylphenyl)-1H-pyrrolo[2,3-b]pyridin-3-yl)(6,7-dihydrothiazolo[5,4-c]pyridin-5(4H)-yl)methanone] were 7.30 to 8.00 and under 5.00.
Taken in the same sequence, the figures for `Cc1nc2n(n1)CCN(C(=O)c1c(N)n(-c3c(C)ccc(O)c3C)c3ncc(Cl)cc13)C2` [Example 10, (2-amino-5-chloro-1-(3-hydroxy-2,6-dimethylphenyl)-1H-pyrrolo[2,3-b]pyridin-3-yl)(2-methyl-5,6-dihydro-[1,2,4]triazolo[1,5-a]pyrazin-7(8H)-yl)methanone] were 7.30 to 8.00 and under 5.00.
Taken in the same sequence, the figures for `Cc1cc2n(n1)CCN(C(=O)c1c(N)n(-c3c(C)ccc(O)c3C)c3ncc(Cl)cc13)C2` [Example 11, (2-amino-5-chloro-1-(3-hydroxy-2,6-dimethylphenyl)-1H-pyrrolo[2,3-b]pyridin-3-yl)(2-methyl-6,7-dihydropyrazolo[1,5-a]pyrazin-5(4H)-yl)methanone] were 7.30 to 8.00 and under 5.00.
Regarding `Cc1ccc(O)c(C)c1-n1c(N)c(C(=O)N2CCn3nc(C(F)(F)F)nc3C2)c2cc(Cl)cnc21` [Example 12, (2-amino-5-chloro-1-(3-hydroxy-2,6-dimethylphenyl)-1H-pyrrolo[2,3-b]pyridin-3-yl)(2-(trifluoromethyl)-5,6-dihydro-[1,2,4]triazolo[1,5-a]pyrazin-7(8H)-yl)methanone], the figures for the pIC50 in test [1] and in test [2] were 7.30 to 8.00 and under 5.00, respectively.
For the molecule `Cc1ccc(O)c(C)c1-n1c(N)c(C(=O)N2CCn3ncc(CO)c3C2)c2nc(C)c(C)nc21` [Example 16, (6-amino-5-(3-hydroxy-2,6-dimethylphenyl)-2,3-dimethyl-5H-pyrrolo[2,3-b]pyrazin-7-yl)(3-(hydroxymethyl)-6,7-dihydropyrazolo[1,5-a]pyrazin-5(4H)-yl)methanone], the results for the pIC50 in test [1] and in test [2] were over 8.00 and under 5.00, respectively.
As to `Cc1ccc(O)c(C)c1-n1c(N)c(C(=O)N2CCn3nc(C(C)(C)O)cc3C2)c2nc(C)c(C)nc21` [Example 19], the negative-log IC50 (pIC50) in test [1] was 5.30 to 6.30.
As for `Cc1ccc(O)c(C)c1-n1c(N)c(C(=O)N2CCn3nccc3C2C)c2nc(C)c(C)nc21` (stereo not drawn) [Example 26, (6-amino-5-(3-hydroxy-2,6-dimethylphenyl)-2,3-dimethyl-5H-pyrrolo[2,3-b]pyrazin-7-yl)(4-methyl-6,7-dihydropyrazolo[1,5-a]pyrazin-5(4H)-yl)methanone], the pIC50 in test [1] was 5.30 to 6.30; in test [2], under 5.00.
Turning to `Cc1ccc(O)c(C)c1-n1c(N)c(C(=O)N2CCn3c(nnc3C(F)(F)F)C2)c2cc(Cl)cnc21` [Example 27, (2-amino-5-chloro-1-(3-hydroxy-2,6-dimethylphenyl)-1H-pyrrolo[2,3-b]pyridin-3-yl)(3-(trifluoromethyl)-5,6-dihydro-[1,2,4]triazolo[4,3-a]pyrazin-7(8H)-yl)methanone], the pIC50 was 6.30 to 7.30 in test [1] and under 5.00 in test [2].
As to `Cc1ccc(O)c(Cl)c1-n1c(N)c(C(=O)N2CCn3nccc3C2)c2nc(C)c(C)nc21` [Example 28, (6-amino-5-(2-chloro-3-hydroxy-6-methylphenyl)-2,3-dimethyl-5H-pyrrolo[2,3-b]pyrazin-7-yl)(6,7-dihydropyrazolo[1,5-a]pyrazin-5(4H)-yl)methanone], the results for the pIC50 in test [1] and in test [2] were over 8.00 and 5.27, respectively.
Taken in the same sequence, the figures for `Cc1cc(F)c(O)c(C)c1-n1c(N)c(C(=O)N2CCn3nccc3C2)c2nc(C)c(C)nc21` [Example 29, (6-amino-5-(4-fluoro-3-hydroxy-2,6-dimethylphenyl)-2,3-dimethyl-5H-pyrrolo[2,3-b]pyrazin-7-yl)(6,7-dihydropyrazolo[1,5-a]pyrazin-5(4H)-yl)methanone] were 7.30 to 8.00 and under 5.00.
Taken in the same sequence, the figures for `C=Cc1cnc2c(n1)c(C(=O)N1CCn3nccc3C1)c(N)n2-c1c(C)ccc(O)c1C` [Example 33, (6-amino-5-(3-hydroxy-2,6-dimethylphenyl)-2-vinyl-5H-pyrrolo[2,3-b]pyrazin-7-yl)(6,7-dihydropyrazolo[1,5-a]pyrazin-5(4H)-yl)methanone] were 7.30 to 8.00 and under 5.00.
Consider `Cc1ccc(O)c(C)c1-n1c(N)c(C(=O)N2CCn3nccc3C2)c2nc(C(F)(F)F)ncc21` [Example 38, (6-amino-5-(3-hydroxy-2,6-dimethylphenyl)-2-(trifluoromethyl)-5H-pyrrolo[3,2-d]pyrimidin-7-yl)(6,7-dihydropyrazolo[1,5-a]pyrazin-5(4H)-yl)methanone], for which the negative-log IC50 (pIC50) in test [1] was 6.30 to 7.30; in test [2], under 5.00.
Turning to `CC#Cc1nc2c(C(=O)N3CCn4nccc4C3)c(N)n(-c3c(C)ccc(O)c3C)c2nc1C` [Example 40, (6-amino-5-(3-hydroxy-2,6-dimethylphenyl)-3-methyl-2-(prop-1-yn-1-yl)-5H-pyrrolo[2,3-b]pyrazin-7-yl)(6,7-dihydropyrazolo[1,5-a]pyrazin-5(4H)-yl)methanone], in test [1], the pIC50 is 7.30 to 8.00.

The values above are taken from patent publication US20250163077A1, “MEMBRANE-ASSOCIATED TYROSINE- AND THREONINE-SPECIFIC CDC2-INHIBITORY KINASE (PKMYT1) INHIBITORS AND USES THEREOF” (Insilico Medicine IP Limited, priority 2022, published 2025).
